Literature values as cited in patent US8808735B2, “Fast wet-massing method for the preparation of calcium-containing compositions” (Takeda Nycomed AS, priority 2005, dated 2014).

Test system: fracture rate
Conditions: annual injections of 150.000-300.000 IU

vitamin D
overall fracture rate: significant reduction
